Experimental data reported in ChEMBL document CHEMBL1201862, “PubChem BioAssay data set” (2004).
The source made the active and inactive calls.

Key:
[1] = HEK293T cell cytotoxicity, dose response, cytotoxicity control, CellTiter-Glo luminescence, cherry-picked samples, set 4 (AID 743441); format: functional, cell-based; conditions: HEK293
[2] = insulin promoter down-regulators in MIN6 cells, imaging, high-content screening, mouse beta cells (AID 1628); format: functional
[3] = HEK293T cytotoxicity, dose response, cytotoxicity control for miR-122 modulator project, cell-based, inhibitor set, cherry-pick, set 2 (AID 720697); format: functional
[4] = microbe, parasite or virus in culture; format: functional; conditions: Mycobacterium tuberculosis
[5] = cytotoxicity in MIN6 insulinoma cells, dose response, cytotoxicity control, cell-based, mouse insulinoma (AID 2122); format: functional;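 note: confirmatory high-throughput counterscreen run to flag cytotoxic compounds; mouse MIN-6 beta cells carrying an insulin promoter eGFP reporter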
[6] = Shn3 3'UTR reporter inhibitors, dose response, cell-based, Clone20 osteoblasts, firefly luciferase, cherry-picked (AID 624132); format: functional;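 note: firefly luciferase luminescence from reporter carrying the Shn3 3'UTR in osteoblasts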
[7] = HepG2 cell cytotoxicity, dose response, cytotoxicity control for Shn3 inhibitor project, CellTiter-Glo, cherry-picked (AID 624134); format: functional, cell-based
[8] = control 3'UTR Renilla luciferase suppression, dose response, counter-screen for Shn3 inhibitor project, cell-based, Clone20-Shn3RL, cherry-picked (AID 624133); format: functional
[9] = HepG2 cell cytotoxicity, dose response, cytotoxicity control, CellTiter-Glo luminescence, cherry-pick, set 2 (AID 743395); format: functional
[10] = reduction of Shn3 3'UTR firefly luciferase signal, dose response, Schnurri-3 inhibitor project, cell-based, Clone20 osteoblasts, cherry-pick, set 2 (AID 720490); format: functional;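 note: actives lower the luminescence signal as inhibitors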
[11] = target: Endoplasmic reticulum aminopeptidase 1 (Homo sapiens, UniProt Q9NZ08); test: ERAP1 aminopeptidase inhibitors, dose response, biochemical, cherry-pick, set 2, plate reader (AID 743314)
Aminopeptidase N = target: T1, Aminopeptidase N (Plasmodium falciparum FcB1/Columbia, UniProt O96935); test: P. falciparum M1AAP inhibitors, biochemical, fluorogenic H-Leu-NHMec substrate, 1536-well (AID 1445); design: species or system Plasmodium falciparum 3D7, 3D7
T1 sequence (O96935 whole entry): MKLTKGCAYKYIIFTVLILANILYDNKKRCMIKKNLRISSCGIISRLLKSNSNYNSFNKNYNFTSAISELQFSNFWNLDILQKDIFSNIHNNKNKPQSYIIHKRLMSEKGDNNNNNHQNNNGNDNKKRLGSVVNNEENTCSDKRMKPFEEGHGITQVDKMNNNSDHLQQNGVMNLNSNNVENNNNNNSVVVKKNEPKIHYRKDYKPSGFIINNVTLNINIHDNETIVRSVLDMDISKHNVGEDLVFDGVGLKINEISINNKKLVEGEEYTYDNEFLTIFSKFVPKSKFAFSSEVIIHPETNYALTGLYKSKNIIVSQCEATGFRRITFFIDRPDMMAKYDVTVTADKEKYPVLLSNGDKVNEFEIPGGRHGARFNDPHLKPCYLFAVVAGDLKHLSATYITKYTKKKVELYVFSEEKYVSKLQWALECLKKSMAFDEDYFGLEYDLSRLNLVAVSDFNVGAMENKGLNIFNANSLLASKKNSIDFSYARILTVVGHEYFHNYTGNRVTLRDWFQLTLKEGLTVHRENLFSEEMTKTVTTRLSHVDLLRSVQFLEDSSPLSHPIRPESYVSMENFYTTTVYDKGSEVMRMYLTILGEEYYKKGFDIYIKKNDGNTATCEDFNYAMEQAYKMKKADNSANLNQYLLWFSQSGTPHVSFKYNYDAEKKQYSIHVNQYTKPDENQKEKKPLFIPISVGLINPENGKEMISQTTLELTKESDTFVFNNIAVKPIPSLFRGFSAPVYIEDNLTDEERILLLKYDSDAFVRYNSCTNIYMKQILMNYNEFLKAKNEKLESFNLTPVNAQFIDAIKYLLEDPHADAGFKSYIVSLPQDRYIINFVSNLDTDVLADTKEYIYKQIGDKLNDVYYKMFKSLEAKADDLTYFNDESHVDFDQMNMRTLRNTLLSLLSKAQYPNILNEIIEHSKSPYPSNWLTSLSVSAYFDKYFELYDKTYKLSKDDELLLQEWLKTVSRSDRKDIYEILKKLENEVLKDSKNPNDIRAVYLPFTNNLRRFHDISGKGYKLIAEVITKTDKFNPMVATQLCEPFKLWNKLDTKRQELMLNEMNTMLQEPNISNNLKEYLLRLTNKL

[12] = target: Metabotropic glutamate receptor 5 (Rattus norvegicus, UniProt P31424); test: Identification of a glycine sulfonamide based non-MPEP site positive allosteric potentiator (PAM) of mGlu5 (calcium_assay).; format: functional
Chain of Metabotropic glutamate receptor 5 (P31424 whole entry): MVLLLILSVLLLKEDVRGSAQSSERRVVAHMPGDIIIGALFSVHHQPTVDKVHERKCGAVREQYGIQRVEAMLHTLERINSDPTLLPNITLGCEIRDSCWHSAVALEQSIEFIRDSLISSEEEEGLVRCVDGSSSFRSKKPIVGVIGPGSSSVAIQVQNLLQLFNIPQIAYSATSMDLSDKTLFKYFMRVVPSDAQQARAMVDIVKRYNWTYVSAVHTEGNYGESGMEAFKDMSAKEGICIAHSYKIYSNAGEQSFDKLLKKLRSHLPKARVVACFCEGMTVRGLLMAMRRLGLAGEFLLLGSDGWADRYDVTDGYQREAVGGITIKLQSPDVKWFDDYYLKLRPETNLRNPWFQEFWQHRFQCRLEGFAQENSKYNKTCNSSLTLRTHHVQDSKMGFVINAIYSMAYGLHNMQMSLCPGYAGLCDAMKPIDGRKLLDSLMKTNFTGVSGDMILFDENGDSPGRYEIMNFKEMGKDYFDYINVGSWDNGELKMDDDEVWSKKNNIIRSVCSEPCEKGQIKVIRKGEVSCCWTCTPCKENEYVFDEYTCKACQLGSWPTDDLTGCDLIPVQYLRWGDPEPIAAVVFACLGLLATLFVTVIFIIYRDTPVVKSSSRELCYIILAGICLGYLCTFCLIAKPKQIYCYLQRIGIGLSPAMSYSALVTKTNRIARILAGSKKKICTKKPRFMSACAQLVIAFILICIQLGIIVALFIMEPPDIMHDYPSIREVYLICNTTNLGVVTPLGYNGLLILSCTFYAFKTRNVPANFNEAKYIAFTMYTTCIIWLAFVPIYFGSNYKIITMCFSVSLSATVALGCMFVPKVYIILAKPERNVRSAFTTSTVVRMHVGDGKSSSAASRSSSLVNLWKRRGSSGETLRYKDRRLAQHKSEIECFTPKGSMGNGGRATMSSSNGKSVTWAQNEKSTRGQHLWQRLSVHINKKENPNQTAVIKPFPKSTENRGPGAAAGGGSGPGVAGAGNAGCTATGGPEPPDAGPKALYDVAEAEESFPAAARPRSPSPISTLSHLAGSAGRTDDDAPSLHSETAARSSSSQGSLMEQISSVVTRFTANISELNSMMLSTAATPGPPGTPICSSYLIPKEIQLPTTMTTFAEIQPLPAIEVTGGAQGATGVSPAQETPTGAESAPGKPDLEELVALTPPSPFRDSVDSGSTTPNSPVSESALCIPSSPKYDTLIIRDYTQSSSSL

Chain of Endoplasmic reticulum aminopeptidase 1 (Q9NZ08 whole entry): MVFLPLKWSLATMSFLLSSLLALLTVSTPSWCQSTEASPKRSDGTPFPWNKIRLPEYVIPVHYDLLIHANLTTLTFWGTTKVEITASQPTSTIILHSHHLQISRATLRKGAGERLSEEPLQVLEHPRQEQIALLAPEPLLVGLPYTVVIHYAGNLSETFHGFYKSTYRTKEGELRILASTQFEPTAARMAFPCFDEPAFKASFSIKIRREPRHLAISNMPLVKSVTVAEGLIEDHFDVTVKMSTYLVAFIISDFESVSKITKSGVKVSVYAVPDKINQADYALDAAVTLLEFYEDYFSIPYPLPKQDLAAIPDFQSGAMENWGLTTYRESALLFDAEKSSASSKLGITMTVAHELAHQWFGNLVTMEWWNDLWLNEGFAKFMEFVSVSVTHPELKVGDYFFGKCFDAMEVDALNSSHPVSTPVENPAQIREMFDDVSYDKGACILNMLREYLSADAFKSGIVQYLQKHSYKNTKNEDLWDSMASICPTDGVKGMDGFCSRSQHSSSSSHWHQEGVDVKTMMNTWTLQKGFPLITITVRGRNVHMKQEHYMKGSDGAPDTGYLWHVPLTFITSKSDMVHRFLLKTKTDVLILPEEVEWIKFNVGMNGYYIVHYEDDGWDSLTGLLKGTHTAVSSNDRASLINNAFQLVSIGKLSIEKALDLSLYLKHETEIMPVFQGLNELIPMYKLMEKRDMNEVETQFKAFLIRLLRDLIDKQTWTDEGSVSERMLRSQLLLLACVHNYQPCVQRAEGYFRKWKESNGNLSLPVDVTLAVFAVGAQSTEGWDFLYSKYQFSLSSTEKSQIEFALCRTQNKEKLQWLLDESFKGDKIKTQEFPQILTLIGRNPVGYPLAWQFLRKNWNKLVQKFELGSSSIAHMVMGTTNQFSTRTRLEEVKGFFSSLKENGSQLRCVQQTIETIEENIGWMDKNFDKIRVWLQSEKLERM

| SMILES | IC50 [2] | IC50 [5] | AC50 [6] | AC50 [7] | AC50 [8] | other results |
| --- | --- | --- | --- | --- | --- | --- |
| Cc1c(C(=O)O)sc2nc(CSc3ncc(C(F)(F)F)cc3Cl)nc(O)c12 |  |  |  |  |  | AC50 [1]: > 52 µM (inactive) |
| COc1ccc(-c2oc3ncnc(NCCCN4CCOCC4)c3c2-c2ccc(OC)cc2)cc1 | 0.898 µM (active) | > 16 µM (inactive) |  |  |  | AC50 [3]: 1.51 µM (active); CC50 [4]: 24.8 µM (active) |
| CCOC(=O)c1oc2ccc(S(=O)(=O)n3nc(-c4ccccc4)cc3N)cc2c1C | 1.08 µM (active) | 1.01 µM (active) | 0.854 µM (active) | 56.8 µM (active) | 7.82 µM (active) | AbsAC35_uM [9]: 31.08 µM |
| CCOC(=O)N1CCN(c2ccc(S(=O)(=O)N(Cc3ccccc3)Cc3ccccc3)cn2)CC1 |  |  | 2.59 µM (active) | 45 µM (active) | 34.3 µM (active) | AC50 [10]: 2.09 µM (active) |
| CCc1c(C)c2cc(Cl)c(O)c(CN(CC)CC)c2oc1=O |  |  |  |  |  | AC50 [11]: 6.85 µM (active); IC50 (Aminopeptidase N): 34.6 µM (active) |
| CS(=O)(=O)N1c2ccccc2CCC1C(=O)Nc1ccccn1 (stereo not drawn) |  |  |  |  |  | EC50 [12]: 0.944 µM |
